Experimental data taken from patent US20020160968A1, “Inhibitors of cellular niacinamide mononucleotide formation and their use in cancer therapy” (Klinge Pharma GmbH, priority 1999, published 2002).

Columns and labels:
[1] = test system: HepG2 cells; assay: Cell growth under high-density conditions (SRB assay), delayed cell death (DCD); format: cell-based, human; conditions: high density HepG2 cultures; for minimal effective concentration: Homo sapiens
[2] = biological target: T1, niacinamide phosphoribosyltransferase (NAPRT, EC 2.4.2.12) (Homo sapiens, UniProt P43490); assay: Niacinamide phosphoribosyltransferase (NAPRT) assay, protamine-treated cytoplasmic fraction of K-562 cells; format: biochemical; conditions: for NAM: niacinamide mononucleotide formed, controls 79.1 and 71.8; for NA: niacinamide remaining, controls 389.7 and 397.0; for NAM [%] / NA [%]: portion of total radioactivity
T1 construct: protamine-treated cytoplasmic fraction of K-562 cells as the enzyme source; endogenous in cells; host or cells: K-562 (ATCC CCL 243), freeze-thaw lysate, 23,000 x g supernatant treated with protamine sulfate
Protocol: The effect of the compounds on the enzyme niacinamide phosphoribosyltransferase (NAPRT, EC 2.4.2.12) was investigated using for example protamine-treated cytoplasmic fraction of K-562 cells as the enzyme source according to the NAPRT assay described in the experimental part below. The investigated compounds were used in concentrations of 10 μM, except for K22387 and K22133 where the concentration was 1 μM.
The assay is based on the amount of radioactive incorporation from ^14C-labelled niacinamide into niacinamide mononucleotide (NAM). NAM is subsequently separated from niacinamide (NA) by thin-layer chromatography and its quantity is determined by autoradiography.
Niacinamide Phosphoribosyltransferase (NAPRT) Assay
The human cell line K-562 (chronic myelogenous leukaemia) is obtained from the American Type Culture Collection (ATCC CCL 243), Rockville, Md., USA. The K-562 cells are cultured in RPMI (Sigma, Deisenhofen, Germany, Product No.: R6504) containing 10% foetal calf serum (PAN Systems GmbH, Aidenbach, Germany), 2.2 g/l NaHCO3 (Merck, Darmstadt, Germany), 50,000 IU/l penicillin and 50 mg/l streptomycin (Sigma).
The K-562 cells are grown in RPMI supplemented with 10% FCS at 37° C. and 100% humidity in a 5% CO2 atmosphere up to a density of 2×10^6 cells per ml. Under these conditions, the cells grow logarithmically with a generation time of 24 hours. The cells are harvested by aspiration and centrifugation (250×g, 10 min, RT). Thereafter, the cells are washed at least 3 times by repeated centrifugation (250×g, 10 min, RT) and resuspension in CMF-PBS. After counting the cell suspension in a haematocytometer, the cells are spun into a tight pellet (390×g, […], RT) and the supernatant is carefully drawn off with a Pasteur pipette. The cells are then vortexed into suspension in sufficient lysis buffer to give a final concentration of 3×10^7 cells per ml. The suspension is frozen at −80° C. for at least one day and thawed slowly at room temperature to break up the cells. The breakage is usually greater than 95%, as determined by trypan blue exclusion. Following centrifugation at 23,000×g for 90 min at 0° C., the clarified supernatant is recovered on ice and 70 μl of 1% protamine sulfate is added per ml of supernatant. After 15 min on ice, the cloudy suspension is centrifuged a further 30 min at 23,000×g and 0° C. The final supernatant is stored in small aliquots at […] This supernatant contains about 950 to 1440 μg protein per ml. 120 to 140 μg protein per sample is used in the NAPRT assay (total assay volume: 0.5 ml).
The niacinamide phosphoribosyltransferase activity is determined in a reaction solution of 0.5 ml consisting of 5 mM MgCl2, 2 mM ATP, 0.5 mM PRPP, and [^14C]niacinamide (10^−5 M to 10^−7 M) in 50 mM Tris buffer pH 8.8 (final concentrations in the assay). The reaction is started by adding 100 to 120 μl cell extract. After incubation for 1 hour at 37° C., the enzyme reaction is stopped by adding cold niacinamide (50 μl of a 100 mM niacinamide solution per 0.5 ml reaction mixture) and by heating on a heating block (2 min, 105° C.). The precipitate is removed by centrifugation (2,500×g, 10 min, 4° C.) and the supernatant is collected into a […] polypropylene vial with screw cap and stored at −20° C. until further analysis. A 10 μl aliquot is taken from the supernatant to determine the total amount of radioactivity.
The ^14C-labelled components of the reaction mixture are separated and identified using thin-layer chromatography (TLC). 5 to 7.5 μl of each sample is transferred to a cellulose TLC foil using an automated sample applicator. The cellulose foil is developed using 1 M NH4 acetate:ethanol (3:7) as solvent. The chromatogram is run with added non-radioactive standards of NAD, NADP, NAM and niacinamide, and the spots were identified by UV absorption (RF values see Table 7). For autoradiography, the chromatogram is exposed to an imaging plate BAS-IIIs in a hypercassette for at least two days. […]

[3] = test system: Hep G2 cells; assay: Nicotinamide Reversibility Assay / cell growth inhibition of Hep G2 cells (SRB, six days); format: cell-based, human; conditions: for IC50: Homo sapiens, HepG2, 144 h, six days of compound incubation, SRB, read-out: Cell growth inhibition IC50-values [μM] Hep G2
Protocol: Nicotinamide Reversibility Assay
Hep G2 cells derived from a human liver carcinoma were plated at a density of 20,000 cells/ml in 12-well plastic dishes. Cultivation occurred in Richters IMEM-ZO nutrient medium with 5% fetal calf serum (FCS) in a tissue culture incubator with a gas mixture of 5% CO2 and 95% air at a temperature of 37° C. One day after plating, the culture medium was aspirated from the cells and replaced by fresh medium which contained the respective concentrations of the test compounds and where applicable of the nicotinamide. For the individual concentrations and the controls without test compounds, three-fold batches were done for each. Three days after the beginning of treatment, the medium was again renewed with the test compounds and where applicable the nicotinamide. After six days of compound incubation, the test was ended and the protein amount in the individual wells was determined with the sulforhodamin-B-method (according. to P. Skehan et al.: New Colorimetric Cytotoxicity Assay for Anticancer-Drug Screening. J. Natl. Cancer Inst. 82: 1107-1112, 1990). The IC50-values were taken from the dose-response curves and given as a comparative measurement for the activity of the test compounds.

[4] = test system: NAD(P) synthesis from niacinamide in HepG2 cells; assay: Determination of NAD(P) synthesis from [14C]niacinamide in HepG2 cells; format: cell-based, human; conditions: for inhibition at 10 µM: read-out: Cellular NAD synthesis inhibition [%]
Description: The effect of the compounds on the synthesis of NAD(P) starting from niacinamide was investigated using for example the tumor cell line HepG2 according to the technique described in the experimental part below.
The inhibition of the NAD(P) synthesis from niacinamide by these compounds was investigated in HepG2 cells as described in the section “Material and Methods”. The compounds of Table 3 a were used at a concentration of 10^−5 M. The compounds of Table 3 b were used at concentrations of at least 10^−5 M, except for Doxorubicin where the concentration was 0.3×10^−5 M. As a control, vehicle treated or untreated cells were used.
In these experiments, a pre-incubation period of 17 hrs with the compounds was used, but it turned out that the pre-incubations period could be shortened, for example to 2 hrs, or skipped completely without affecting the inhibition profile. […] Similar results were obtained with the other specific compounds.
For the detection of specific inhibitors of niacinamide mononucleotide formation the following screening assay is especially useful which comprises the following steps: incubating cultured cells selected from HepG2 cells, U-87 MG cells, MCF-7 M1 cells, Caki-1 cells, HL-60 cells, PC3 cells, U-373 MG cells, A549 cells and KG-1a cells in the presence of [^14C]niacinamide and a compound to be tested for its activity to inhibit the cellular formation of niacinamide mononucleotide; effecting lysis of the cells; isolating and separating the [^14C]-labeled compounds and measuring the amount of formed labeled niacinamide mononucleotide, NAD and NADP. More concretely, cultured cells are seeded in a defined density in culture dishes, followed by incubation in the presence of a test compound and by the addition of [^14C]niacinamide for about 0.1 to 6 hrs. The cells are then lysed with perchloric acid and the resulting extract is neutralized. Finally, the [^14C]-labeled compounds are separated by thin-layer chromatography on cellulose matrices followed by UV detection and autoradiography. Non-radioactive niacinamide derivatives are used as standards. This assay allows simple and effective screening and selection of the compounds according to the invention.
Determination of NAD(P) Synthesis from [^14C]Niacinamide
The cells were detached from 75 cm^2 flasks by removing the growth medium and adding 3 ml trypsin/EDTA solution to each flask. After about 5 minutes incubation at 37° C., when the cells were detached from the surface of the dishes, trypsinization was stopped by adding 3 ml Richter's IMEM-ZO medium containing 10% FCS. The cells were suspended by repeated pipetting. For predilution, an aliquot of 20 μl was added to 10 ml Casyton isotonic solution (No. 043-90037P, Schärfe System, Reutlingen, Germany) using a Sysmex Auto Dilutor Type AD-260 (Toa, Medical Electronics Co. Ltd., Kobe, Japan). The cell number was determined by electronic cell volume measurements and counting with a CASY 1 Cell Counter+Analyzer System, Model TTC (Schärfe System, Reutlingen, Germany) equipped with a 60 μm capillary. Following dilution in IMEM-ZO containing 10% FCS, the cells were finally seeded at a density of 4×10^6/10 ml per sample in Ø 10 cm tissue culture dishes (Greiner, Frickenhausen, Germany) and incubated at 37° C. in a humidified atmosphere of 5% CO2 in air.
After one day, when the cells were adherent to the dishes, the cultures were replenished with IMEM-ZO containing 5% FCS plus the test compound or the vehicle. […] The cells were then incubated at 37° C. for 17 hours in a humidified atmosphere of 5% CO2 in air. This preincubation period is not necessary to achieve a distinct inhibitory action of the compounds and can be shortened for example to 2 or 0 hours. After this period of time, the medium was again discarded and 4 ml HEPES-buffered IMEM-ZO containing the test compound or the vehicle and 0.5 μCi/ml [^14C]niacinamide were added to each culture for an additional 5 hours at 37° C. and 100% humidity. […]

[5] = minimum concentration which, despite initial growth, induced cell death below the number of initially seeded cells, Table 2
[6] = compound 10 μM, controls 16.88 and 15.32
[7] = compound 10 μM, controls 83.12 and 84.68

T1 sequence (P43490 whole entry): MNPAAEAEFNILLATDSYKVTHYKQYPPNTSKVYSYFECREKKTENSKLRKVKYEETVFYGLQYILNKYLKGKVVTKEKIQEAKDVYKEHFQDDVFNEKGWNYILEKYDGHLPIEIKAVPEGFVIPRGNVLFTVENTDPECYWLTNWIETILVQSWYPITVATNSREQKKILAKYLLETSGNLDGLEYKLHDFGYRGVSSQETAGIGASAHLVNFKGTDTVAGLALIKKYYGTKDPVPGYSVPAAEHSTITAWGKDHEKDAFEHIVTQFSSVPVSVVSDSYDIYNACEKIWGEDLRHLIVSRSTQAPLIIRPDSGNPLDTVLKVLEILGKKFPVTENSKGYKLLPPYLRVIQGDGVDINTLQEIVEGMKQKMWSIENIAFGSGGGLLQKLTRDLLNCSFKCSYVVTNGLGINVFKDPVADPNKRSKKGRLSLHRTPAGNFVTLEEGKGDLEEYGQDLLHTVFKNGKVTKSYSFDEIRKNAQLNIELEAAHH

| SMILES | minimal effective concentration ([1]; Table 5) [µM] | minimal effective concentration [1, 5] [µM] | NAM ([2]; compound 10 μM) [pmol/h] | NA ([2]; compound 10 μM) [pmol/h] | NAM [%] [2, 6] [%] | NA [%] [2, 7] [%] | IC50 ([3]; Hep G2) [µM] | inhibition at 10 µM ([4]; Homo sapiens) [%] | other results |
| --- | --- | --- | --- | --- | --- | --- | --- | --- | --- |
| O=C(CCc1cccnc1)NCCCCC1CCN(CCCCC2CCN(C(c3ccccc3)c3ccccc3)CC2)CC1 [Compound K22316, N-(4-(1-[4-{1-benzhydryl-piperidine-4-yl)-butyl]-piperidine-4-yl}-butyl)-3-pyridine-3-yl-propanoic acid amide] | 1 | 1 | 0.0 | 468.8 | 0.00 | 100.00 | 0.9 |  |  |
| O=C(/C=C/c1cccnc1)NCCCCCCCC(c1ccccc1)c1ccccc1 [Compound K22133, N-(8,8-diphenyl-octyl)-3-pyrid-3-yl-acrylamide] | 0.03 | 0.03 |  |  |  |  | 0.02 |  | NAM ([2]; compound 1 μM): 0.0 pmol/h; NA ([2]; compound 1 μM): 468.8 pmol/h; NA [%] ([2]; compound 1 μM): 100.00%; NAM [%] ([2]; compound 1 μM): 0.00% |
| O=C(NCCCCCCNC(=O)NCc1cccnc1)NCCC(c1ccccc1)c1ccccc1 [Compound K22158, 1-(3,3-diphenylpropyl)-3-[6-(3-pyridine-3-yl-methylureido)-hexyl]-urea] | 1 | 1 | 0.0 | 468.8 | 0.00 | 100.00 | 0.1 |  |  |
| [N-]=[N+]=CC(=O)CC[C@H](N)C(=O)O [6-Diazo-5-oxo-L-norleucine, reference compound] |  |  |  |  |  |  | 3 | 0 | Tox. (effective (toxic) concentration) in DCD ([1]; toxic compounds, rapid decrease in cell numbers): Tox. 100 μM; NAD(P) % of Control ([4]; Table 3b, at least 10^-5 M): 110.5%; NAD(P) pmol/mg protein ([4]; Table 3b, at least 10^-5 M, control 374.00): 413.55 pmol/mg protein; NAD(P) pmol/10^6 cells ([4]; Table 3b, toxic compounds at at least 10^-5 M, control 531): 586.39 pmol/10^6 cells; Influence of the addition of nicotinamide on the action on cell growth (FIGS. 20 to 27) ([3]; Hep G2): no measurable influence; Reversal by Niacinamide ([3]; Hep G2 cell growth inhibition with added nicotinamide): no |
| S=C(NCCCCC=C(c1ccccc1)c1ccccc1)N/N=C/c1cccnc1 [Compound K22299, 1-(6,6-diphenyl-5-hexenyl)-3-(pyridine-3-yl-methylene-amino)-thiourea] | 0.3 | 0.3 |  |  |  |  | 0.1 | 99 | activity at 10 µM ([4]; Homo sapiens, Table 3a, compound 10^-5 M, read-out: NAD(P) % of Control): 0.5%; NAD(P) pmol/10^6 cells ([4]; Table 3a, compound 10^-5 M, 17 hrs pre-incubation, control 302.1): 1.6 pmol/10^6 cells; NAD(P) pmol/mg protein ([4]; Table 3a, compound 10^-5 M, control 186.4): 1.0 pmol/mg protein |
